Experimental data as given in PMC10449848, “Structural basis of lipid-droplet localization of 17-beta-hydroxysteroid dehydrogenase 13” (Nature Communications, 2023).
Where “and” joins values, the source holds several entries; their conditions need not be identical. Equal values may be shown once.

Assays:
human HSD17B13 [1] = target: T1, human HSD17B13 (Homo sapiens, UniProt Q7Z5P4); experiment: HSD17B13 purified protein biochemical enzyme activity assay, NAD(P)H-Glo luciferase readout; settings: Leukotriene B4 as substrate, NAD+ cofactor
T1 construct: human HSD17B13 (residues 2-300, NP_835236.2); 10x His (N); TEV protease site (N); made in house; host or cells: Sf9 (baculovirus)
T1 sequence (Q7Z5P4 2-300): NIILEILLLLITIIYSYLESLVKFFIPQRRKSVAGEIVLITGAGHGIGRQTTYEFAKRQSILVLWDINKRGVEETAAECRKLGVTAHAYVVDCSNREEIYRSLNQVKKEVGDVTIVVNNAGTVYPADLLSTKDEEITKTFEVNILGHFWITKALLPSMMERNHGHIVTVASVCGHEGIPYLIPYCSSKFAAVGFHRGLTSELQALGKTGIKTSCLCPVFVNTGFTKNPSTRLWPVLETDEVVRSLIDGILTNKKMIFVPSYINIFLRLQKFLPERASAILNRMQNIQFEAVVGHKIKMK

human HSD17B13 [2] = target: T1, human HSD17B13; experiment: Thermal shift assay (static light scattering, Tagg), human HSD17B13; type: binding; settings: for Tagg, individual measurements: 10.4 µM protein; for thermal stability change: Fig. 6c
Source text: To understand ligand binding, we tested several approaches such as surface plasmon resonance and isothermal calorimetry. […] We next turned to thermal shift assays (TSA) for comparing ligand binding affinities. TSA measures the changes in the thermal denaturation temperature of a protein under different conditions such as the presence compound, changes in buffer conditions, or sequence mutations. There are various readouts including intrinsic fluorescence or light scattering signals. We chose the static light scattering methods to detect the temperatures at which our proteins start to aggregate (Tagg), which are more suitable for membrane proteins that require detergent micelles for stability.
TSA studies were run on the UNit instrument (Unchained Labs, CA, USA). Experiments were run in either 25 mM sodium phosphate pH 7, 150 mM NaCl, 10% glycerol, 1 mM TCEP, 0.05% DDM, + different cofactors (NAD^+, NADH, NADP, NADPH; MilliporeSigma) or 25 mM HEPES pH 7.2, 300 mM NaCl, 0.5 mM TCEP, 0.05% DDM, 10% glycerol, ±500 µM NAD^+, and ±100 µM compound 1 (from 2 mM DMSO stock) or DMSO or 50 mM Hepes pH 7.5, 300 mM NaCl, 0.5 mM TCEP, 0.05% DDM, 500 µM NAD^+, ± 50 µM compounds (from 2 mM stock) or DMSO. Protein aggregation was measured by static light scattering at 266 and 473 nm with a 1 °C/sec ramp rate from 20-80 °C. The data was processed using the UNcle software (Unchained Labs, CA, USA), and temperatures at which the protein started aggregation were recorded as Tagg. Reported Tagg and analysis were based on measurements at 266 nm unless otherwise indicated.

human HSD17B13 [3] = target: T2, human HSD17B13 (Homo sapiens, UniProt Q7Z5P4); experiment: Cell assay: HEK cells stably expressing wild-type human HSD17B13, estrone production by LCMS; type: cell-based
T2 construct: expressed in transfected cells
T2 sequence (Q7Z5P4 20-300): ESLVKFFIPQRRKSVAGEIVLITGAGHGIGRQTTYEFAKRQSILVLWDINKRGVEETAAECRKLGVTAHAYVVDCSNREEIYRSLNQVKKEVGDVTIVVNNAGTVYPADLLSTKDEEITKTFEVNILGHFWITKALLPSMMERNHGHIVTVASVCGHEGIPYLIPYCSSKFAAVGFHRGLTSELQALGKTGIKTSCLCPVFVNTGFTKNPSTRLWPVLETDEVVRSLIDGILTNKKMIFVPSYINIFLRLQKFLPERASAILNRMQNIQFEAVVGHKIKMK
Method: Cell inhibition potency of test compounds was determined using a whole-cell HEK overexpressing HSD17B13, utilizing a liquid chromatography/mass spectrometry (LCMS) readout.
In this assay HSD17B13 uses NAD^+ as a cofactor during metabolism of β-estradiol, converting NAD^+ to NADH and β-estradiol to estrone. Estrone production is quantified by LCMS using a Sciex API-5500-Electrospray system (AB Sciex LLC, MA, USA), and used as a measure of HSD17B13 enzyme activity.
The amount of product (estrone) was then quantified by LCMS using software provided (Analyst 1.7, Hotfix 3, MultiQuant 3.0.31721.0). Data expressed as product area ratio (PAR) were then normalized to control wells using Activity Base (IDBS). Zero percent effect (ZPE) was defined as PAR generated from uninhibited HSD17B13 (vehicle control).

human HSD17B13 [4] = target: T1, human HSD17B13; experiment: HSD17B13 purified protein biochemical enzyme activity assay, NAD(P)H-Glo luciferase readout; settings: IC 50 mean, Supplementary Figure 8 source data, unit inferred, uM printed
Method: HSD17B13 enzyme inhibition potency of test compounds was determined using a purified protein biochemical enzyme activity assay, using NAD(P)H-Glo luciferase readout (Promega). HSD17B13 enzyme uses the oxidized form of nicotinamide adenine dinucleotide (NAD^+) as a cofactor during metabolism of β-estradiol (substrate) to […] (product), while converting NAD^+ to the reduced form (NADH). The Promega NAD(P)H-Glo™ assay is a homogeneous bioluminescent assay that generates a light signal from biochemical reactions that contain NADH (or nicotinamide adenine dinucleotide phosphate, NADPH). In the presence of NADH (or NADPH), the enzyme Reductase reduces a proluciferin reductase substrate to form luciferin. Luciferin then is quantified using Ultra-Glo™ Recombinant Luciferase (rLuciferase), and the light signal produced is proportional to the amount of NAD(P)H in the sample. […] The reaction was initiated by the addition of 2 µL/well purified HSD17B13 protein (30 nM FAC in assay buffer). […] Detection reagent was incubated in the dark for 1 hour at room temperature before plates were read on the Envision plate reader (Perkin Elmer) using a luminescent protocol. Data expressed as relative luminescent units (RLUs) were then normalized to control wells using Activity Base (IDBS). […]

## O=C(NC[C@]1(O)CC[C@H](COc2ccccc2F)CC1)c1ccc(O)c(F)c1 [Compound 1]
Human HSD17B13 [1]
  IC50: 250 ± 90 nM
Human HSD17B13 [2]; 100 µM ligand + 500 µM NAD+
  Tagg, individual measurements: 54.6 °C and 55.1 °C (2×) and 54.2 °C
Human HSD17B13 [2]; 100 µM ligand, buffer without NAD+
  Tagg, individual measurements: 41.2 °C and 41.6 °C and 44.6 °C and 45 °C
Human HSD17B13 [2]; 500 uM NAD, 100 µM ligand, Tagg(compound + NAD+) - Tagg(buffer + NAD+)
  deltaTagg: 13.1
Human HSD17B13 [2]; in the absence of cofactor
  thermal stability change: no significant effect
Human HSD17B13 [2]; in the presence of NAD+
  thermal stability change: significant increase in thermal stability
Human HSD17B13 [2]; Fig. 6d, 500 μM NAD+
  binding in TSA: bound human HSD17B13 strongly
Human HSD17B13 [2]; Fig. 6d, 500 μM NAD+, 50 µM compound
  Tagg: 49.1 ± 2.0 °C
Human HSD17B13 [2]; no NAD, 100 µM ligand, vs buffer
  dTagg: 3.033
Human HSD17B13 [3]; HEK cells overexpressing HSD17B13
  activity in cell assay: active
Human HSD17B13 [3]; HEK cells overexpressing HSD17B13, β-estradiol substrate
  IC50: 570 ± 120 nM
Human HSD17B13 [4]
  IC50: 0.18 µM
